PubChem BioAssay (NCI)
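Five compound concentrations were applied to cells in 96-well plates for 48 hours; endpoints were derived by simple linear interpolation of the resulting dose-response curve. TGI marks complete inhibition of growth.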

Key:
Assay in all cases: inhibition of tumour cell growth, NCI panel, 48 h
786-0 renal = test system: 786-0 renal
A498 renal = test system: A498 renal
A549 NSCLC = test system: A549 NSCLC
ACHN renal = test system: ACHN renal
CAKI-1 renal = test system: CAKI-1 renal
CCRF-CEM leukemia = test system: CCRF-CEM leukemia
COLO 205 colon = test system: COLO 205 colon
DLD-1 colon = test system: DLD-1 colon
DMS 114 small cell lung = test system: DMS 114 small cell lung
EKVX NSCLC = test system: EKVX NSCLC
HCC-2998 colon = test system: HCC-2998 colon
HCT-116 colon = test system: HCT-116 colon
HCT-15 colon = test system: HCT-15 colon
HL-60(TB) leukemia = test system: HL-60(TB) leukemia
HOP-62 NSCLC = test system: HOP-62 NSCLC
HOP-92 NSCLC = test system: HOP-92 NSCLC
HT29 colon = test system: HT29 colon
IGROV1 ovarian = test system: IGROV1 ovarian
K-562 leukemia = test system: K-562 leukemia
KM12 colon = test system: KM12 colon
KM20L2 colon = test system: KM20L2 colon
LOX IMVI melanoma = test system: LOX IMVI melanoma
LXFL 529 NSCLC = test system: LXFL 529 NSCLC
M14 melanoma = test system: M14 melanoma
M19-MEL melanoma = test system: M19-MEL melanoma
MALME-3M melanoma = test system: MALME-3M melanoma
MOLT-4 leukemia = test system: MOLT-4 leukemia
NCI-H226 lung = test system: NCI-H226 lung
NCI-H23 lung = test system: NCI-H23 lung
NCI-H460 lung = test system: NCI-H460 lung
NCI-H522 lung = test system: NCI-H522 lung
OVCAR-4 ovarian = test system: OVCAR-4 ovarian
OVCAR-5 ovarian = test system: OVCAR-5 ovarian
OVCAR-8 ovarian = test system: OVCAR-8 ovarian
SF-268 CNS = test system: SF-268 CNS
SF-295 CNS = test system: SF-295 CNS
SF-539 CNS = test system: SF-539 CNS
SK-MEL-2 melanoma = test system: SK-MEL-2 melanoma
SK-MEL-28 melanoma = test system: SK-MEL-28 melanoma
SK-MEL-5 melanoma = test system: SK-MEL-5 melanoma
SK-OV-3 ovarian = test system: SK-OV-3 ovarian
SN12C renal = test system: SN12C renal
SNB-19 CNS = test system: SNB-19 CNS
SNB-75 CNS = test system: SNB-75 CNS
SNB-78 CNS = test system: SNB-78 CNS
SR leukemia = test system: SR leukemia
SW-620 colon = test system: SW-620 colon
TK-10 renal = test system: TK-10 renal
U251 CNS = test system: U251 CNS
UACC-257 melanoma = test system: UACC-257 melanoma
UACC-62 melanoma = test system: UACC-62 melanoma
UO-31 renal = test system: UO-31 renal
XF 498 CNS = test system: XF 498 CNS

Measured: TGI

O=C1CSC(/C(=C/c2ccccc2)c2nc3ccccc3[nH]2)=N1
92.7 µM: NCI-H23 lung
38.3 µM: SK-MEL-5 melanoma
50.7 µM: SNB-75 CNS
59.5 µM: SK-OV-3 ovarian
> 100 µM: 786-0 renal | A498 renal | A549 NSCLC | ACHN renal | CAKI-1 renal | CCRF-CEM leukemia | COLO 205 colon | DLD-1 colon | DMS 114 small cell lung | EKVX NSCLC | HCC-2998 colon | HCT-116 colon | HCT-15 colon | HL-60(TB) leukemia | HOP-62 NSCLC | HOP-92 NSCLC | HT29 colon | IGROV1 ovarian | K-562 leukemia | KM12 colon | KM20L2 colon | LOX IMVI melanoma | LXFL 529 NSCLC | M14 melanoma | M19-MEL melanoma | MALME-3M melanoma | MOLT-4 leukemia | NCI-H460 lung | NCI-H522 lung | OVCAR-4 ovarian | OVCAR-5 ovarian | OVCAR-8 ovarian | SF-268 CNS | SF-295 CNS | SK-MEL-2 melanoma | SK-MEL-28 melanoma | SN12C renal | SNB-19 CNS | SNB-78 CNS | SR leukemia | SW-620 colon | TK-10 renal | UACC-257 melanoma | UACC-62 melanoma | UO-31 renal | XF 498 CNS
38.4 µM: NCI-H226 lung
74.4 µM: SF-539 CNS | U251 CNS
